Measured values taken from patent publication US11078152B2, “Method for resolution of baclofen salts” (Universite de Rouen, priority 2016, dated 2021).

How the values were obtained:
[1] = Determination of the solubility of the racemic Bahma salt in a given solvent at a given temperature; format: physicochemical; conditions: for Solubility 1M HCl: aqueous 1M HCl solution; for Solubility 2M HCl: aqueous 2M HCl solution; for Solubility: n-propanol/water azeotropic mixture; for Solubility Water: pure water
Procedure: Determination of the Solubility
The solubility of a Bahma salt in a given solvent was calculated, for a given temperature and in a given volume of solvent, via the following formula:
[formula] in which mBahma is the mass of the Bahma salt introduced in grams to reach saturation; ρsolvent is the density of the solvent in g.mL^−1; and Vsolvent is the volume of the solvent in mL.
The solubility of the racemic Bahma salt at various temperatures was determined in the n-propanol/water azeotropic mixture (ρ=0.870 g.mL^−1).
The solubility of the racemic Bahma salt at various temperatures was determined in pure water (ρ=1 g.mL^−1), in aqueous 1M HCl solution (ρ=1.017 g.mL^−1) and in aqueous 2M HCl solution (ρ=1.030 g.mL^−1).

[2] = background statement, no test described; cited from earlier work

Structure (SMILES) | Solubility 1M HCl ([1]; 20° C.) [%] | Solubility 1M HCl ([1]; 35° C.) [%] | Solubility 1M HCl ([1]; 50° C.) [%] | Solubility 2M HCl ([1]; 20° C.) [%] | Solubility 2M HCl ([1]; 35° C.) [%] | Solubility 2M HCl ([1]; 50° C.) [%] | Solubility ([1]; 20° C.) [%] | Solubility ([1]; 35° C.) [%] | Solubility ([1]; 50° C.) [%] | Solubility Water ([1]; 20° C.) [%] | Solubility Water ([1]; 35° C.) [%] | Solubility Water ([1]; 50° C.) [%] | activity relative to the S(+) enantiomer [2]
NCC(CC(=O)O)c1ccc(Cl)cc1.O=C(O)C=CC(=O)O (racemic) [racemic Bahma salt, baclofen hydrogen maleate] | 4.51 | 6.86 | 12.54 | 6.48 | 11.44 | 22.24 | 1.49 | 2.80 | 4.81 | 0.75 | 1.00 | 1.78 | –
NC[C@H](CC(=O)O)c1ccc(Cl)cc1 [R(−) enantiomer, (R)-4-amino-3-(4-chlorophenyl)butanoic acid] | – | – | – | – | – | – | – | – | – | – | – | – | three times more active than the S(+) enantiomer
